Where a name gives a salt, the structure may show the parent alone.

One data set is described as follows: in vitro. Conditions: PAMPA, PAMPA-BBB Pe. (The PAMPA barrier holds no transporters, so it reflects passive diffusion.)
As usually defined, the Papp is a coefficient for how fast a substance crosses the barrier. `COc1cc2c(cc1OC)[C@@H]1Cc3ccc(OC)c(OC)c3CN1CC2` [TETRAHYDROPALMATINE] yielded a Papp of 156 ×10⁻⁶ cm/s.

As to `CC[C@H](C)C(=O)O[C@H]1CCC=C2C=C[C@H](C)[C@H](CC[C@@H]3C[C@@H](O)CC(=O)O3)[C@H]21` [MEVASTATIN], the Papp was found to be 14 ×10⁻⁶ cm/s.

Consider `CC(C)(O)CC[C@@H](O)[C@](C)(O)[C@H]1CC[C@@]2(O)C3=CC(=O)[C@@H]4C[C@@H](O)[C@@H](O)C[C@]4(C)[C@H]3CC[C@]12C` [COMMISTERONE], for which the Papp turned out to be 14 ×10⁻⁶ cm/s.

Turning to `COC(=O)[C@@H]1[C@H]2C[C@H]3c4[nH]c5ccccc5c4CCN3C[C@@H]2CC[C@@H]1O` [YOHIMBINE], the Papp came out at 42 ×10⁻⁶ cm/s.

Still in this data set, the particulars now being: PAMPA, PAMPA-BBB Pe(10^-6 cm/sec).
Take `CC1=C(/C=C/C(C)=C/C=C/C(C)=C\C(=O)O)C(C)(C)CCC1` [ISOTRETINOIN]: the Papp was found to be 8.7 ×10⁻⁶ cm/s.

As for `Nc1c(O)cccc1C(=O)CC(N)C(=O)O` (centres unmarked) [3-HYDROXYKYNURENINE], the Papp is less than 1 ×10⁻⁶ cm/s.

Staying with this data set, now noted: PAMPA, PAMPA-BBB Pe(10^-6 cm/sec), Table S3: compounds exhibiting low PAMPA-BBB permeability.
For the compound `CC1=C(/C=C/C(C)=C/C=C/C(C)=C/C=C/C=C(C)/C=C/C=C(C)/C=C/C2=C(C)C[C@@H](O)CC2(C)C)C(C)(C)C[C@H](O)C1` [ZEAXANTHIN], the Papp was found to be 2.1 ×10⁻⁶ cm/s.

Compound `Cn1cnc(N)c2ncnc1-2` [3-METHYL-6-AMINOPURINE] registered a Papp of less than 1 ×10⁻⁶ cm/s.

`O=C(O)[C@H]1O[C@@H](Oc2cc3oc(-c4ccccc4)cc(=O)c3c(O)c2O)[C@H](O)[C@@H](O)[C@@H]1O` [BAICALIN] showed a Papp of 1.3 ×10⁻⁶ cm/s.

For `CCNc1nc(N)nc(Cl)n1`, the Papp is 1.1 ×10⁻⁶ cm/s.

As to `Oc1cc(O)c2cc(O)c(-c3cc(O)c(O)c(O)c3)[o+]c2c1` [D[…]], the Papp was found to be 4.7 ×10⁻⁶ cm/s.

For `C[C@@H]1NCCc2cc(O)c(O)cc21` [SALSOLINOL], the apparent permeability coefficient (Papp) is less than 1 ×10⁻⁶ cm/s.

In turn, `Cc1cc(O)c2c(=O)c3c(O)cc(O)c4c5c(O)cc(O)c6c(=O)c7c(O)cc(C)c8c1c2c(c34)c(c78)c65` [HYPERICIN] yielded a Papp of 6.4 ×10⁻⁶ cm/s.

Regarding `c1coc(CNc2ncnc3[nH]cnc23)c1` [KINETIN], the Papp is 4 ×10⁻⁶ cm/s.

On to `CO[C@H]1/C=C/O[C@@]2(C)Oc3c(C)c(O)c4c(O)c(cc(O)c4c3C2=O)NC(=O)/C(C)=C\C=C\[C@H](C)[C@H](O)[C@@H](C)[C@@H](O)[C@@H](C)[C@H](OC(C)=O)[C@@H]1C` [RIFAMYCIN], for which the apparent permeability coefficient (Papp) was less than 1 ×10⁻⁶ cm/s.

On to `Oc1cc(O)c2c(c1)O[C@H](c1cc(O)c(O)c(O)c1)[C@@H](O)C2` [GALLOCATECHIN], for which the Papp is less than 1 ×10⁻⁶ cm/s.

With `CCCCc1ccc(C(=O)O)nc1` [FUSARIC ACID], the Papp is less than 1 ×10⁻⁶ cm/s.

For `CNCCc1ccc(O)c(O)c1` [DEOXYEPINEPHRINE HYDROCHLORIDE], the Papp was less than 1 ×10⁻⁶ cm/s.

In the case of `O=c1c(O)c(-c2cc(O)c(O)c(O)c2)oc2cc(O)ccc12` [ROBINETIN], the Papp was 1 ×10⁻⁶ cm/s.

`COC1=C(OC)C(=O)c2ccccc2C1=O` [2,3-DIMETHOXYNAPHTHOQUINONE] yielded a Papp of 4.7 ×10⁻⁶ cm/s.

Consider `COc1cc(-c2[o+]c3cc(O)cc(O)c3cc2O)cc(OC)c1O` [MALVIDIN], for which the Papp turned out to be 1 ×10⁻⁶ cm/s.

Compound `CC1=C(O)C(=O)[C@@H]2O[C@@H]2C1=O` [TERREIC ACID] came in with a Papp of 6.8 ×10⁻⁶ cm/s.

For the compound `COC(=O)C1=CO[C@@H](O[C@@H]2O[C@H](CO)[C@@H](O)[C@H](O)[C@H]2O)[C@@H]2[C@@H](C)[C@@H](O)C[C@H]12` [LOGANIN], the Papp is less than 1 ×10⁻⁶ cm/s.

Compound `O=c1c(O)c(-c2ccc(O)c(O)c2)oc2cc(O)cc(O)c12` [QUERCETIN] displayed a Papp of less than 1 ×10⁻⁶ cm/s.

The compound `CC(C)=CCC/C(C)=C/C=C/C(C)=C/C=C/C(C)=C/C=C/C=C(C)/C=C/C=C(C)/C=C/C=C(\C)CCC=C(C)C` [LYCOPENE] showed an apparent permeability (Papp) of less than 1 ×10⁻⁶ cm/s.

`O=C(O)[C@H]1O[C@@H](Oc2c(-c3ccc(O)c(O)c3)oc3cc(O)cc(O)c3c2=O)[C@H](O)[C@@H](O)[C@@H]1O` [QUERCITURONE]: the Papp was determined as 4.2 ×10⁻⁶ cm/s.

In turn, `C[C@@H]1O[C@@H](OC[C@H]2O[C@@H](Oc3c(-c4ccc(O)c(O)c4)oc4cc(O)cc(O)c4c3=O)[C@H](O)[C@@H](O)[C@@H]2O)[C@H](O)[C@H](O)[C@H]1O` [RUTIN] returned a Papp of less than 1 ×10⁻⁶ cm/s.

The compound `OC[C@H]1O[C@@H](Oc2ccc(O)cc2)[C@H](O)[C@@H](O)[C@@H]1O` [ARBUTIN] registered a Papp of less than 1 ×10⁻⁶ cm/s.

`C=C/C(C)=C/C/C=C(\C)CCC=C(C)C`: the Papp was less than 1 ×10⁻⁶ cm/s.

Take `NC(=O)c1ncn([C@@H]2O[C@H](CO)[C@@H](O)[C@H]2O)c1N` [ACADESINE]: the Papp is less than 1 ×10⁻⁶ cm/s.

`O=C(O)c1ccccc1O` [SALICYLIC ACID] returned a Papp of 1.8 ×10⁻⁶ cm/s.

The compound `CSC[C@H]1O[C@@H](n2cnc3c(N)ncnc32)[C@H](O)[C@@H]1O` [METHYLTHIOADENOSINE] returned a Papp of less than 1 ×10⁻⁶ cm/s.

`c1cncc([C@@H]2CCCCN2)c1` [ANABASINE] came in with a Papp of 3.4 ×10⁻⁶ cm/s.

In turn, `COC(=O)c1ccc(O)c2nc3c(C=O)c(O)cc(O)c3nc12` [LOMOFUNGIN] had a Papp of 5.1 ×10⁻⁶ cm/s.

Consider `C[C@@H]1C/C=C/C=C/C=C/C=C/[C@H](O[C@@H]2O[C@H](C)[C@@H](O)[C@H](N)[C@@H]2O)C[C@@H]2O[C@](O)(C[C@@H](O)C[C@H]3O[C@@H]3/C=C/C(=O)O1)C[C@H](O)[C@H]2C(=O)O` [NATAMYCIN], for which the Papp came out at 5.7 ×10⁻⁶ cm/s.

Regarding `O=c1cc(-c2ccc(O)cc2)oc2c([C@@H]3O[C@H](CO)[C@@H](O)[C@H](O)[C@H]3O)c(O)cc(O)c12` [VITEXIN], the Papp is less than 1 ×10⁻⁶ cm/s.

In turn, `OCC(O)Cc1ccc2c(c1)OCO2` (centres unmarked) [SAFROLGLYCOL] registered a Papp of 1.7 ×10⁻⁶ cm/s.

Consider `O[C@@H]1[C@@H](O)[C@H](OC/C=C/c2ccccc2)O[C@H](CO[C@@H]2OC[C@H](O)[C@H](O)[C@H]2O)[C@H]1O` [ROSAVIN], for which the Papp is less than 1 ×10⁻⁶ cm/s.

`CCCCC/C=C\C=C\C(=O)OCC` [ETHYL TRANS-2,CIS-4-DECADIENOATE] returned a Papp of less than 1 ×10⁻⁶ cm/s.

`COc1ccc([C@@H]2CC(=O)c3c(O)cc(O[C@@H]4O[C@H](CO)[C@@H](O)[C@H](O)[C@H]4O[C@@H]4O[C@@H](C)[C@H](O)[C@@H](O)[C@H]4O)cc3O2)cc1` [PONCIRIN] came in with a Papp of less than 1 ×10⁻⁶ cm/s.

`NCCc1c[nH]c2ccc(O)cc12` [SEROTONIN HYDROCHLORIDE]: the Papp was less than 1 ×10⁻⁶ cm/s.

The compound `CC/C=C\CC1=C(C)CCC1=O` [JASMONE] displayed a Papp of less than 1 ×10⁻⁶ cm/s.

For `COc1c(O)cc2c(c1O)[C@@H]1O[C@H](CO)[C@@H](O)[C@H](O)[C@H]1OC2=O` [BERGENIN], the Papp was less than 1 ×10⁻⁶ cm/s.

`O=c1c(O)c(-c2ccccc2O)oc2cc(O)cc(O)c12` [DATISCETIN] displayed a Papp of 2.2 ×10⁻⁶ cm/s.

Consider `CN(Cc1nc2c(N)nc(N)nc2nc1O)c1ccc(C(=O)N[C@@H](CCC(=O)O)C(=O)O)cc1` [7-HYDROXYMETHOTREXATE], for which the Papp was less than 1 ×10⁻⁶ cm/s.

Regarding `O=c1c(O)c(-c2cc(O)c(O)c(O)c2)oc2cc(O)cc(O)c12` [MYRICETIN], the Papp was less than 1 ×10⁻⁶ cm/s.

`COc1ccc(-c2cc(=O)c3c(O)c(OC)c(O[C@@H]4O[C@H](CO[C@@H]5O[C@@H](C)[C@H](O)[C@@H](O)[C@H]5O)[C@@H](O)[C@H](O)[C@H]4O)cc3o2)cc1` [PECTOLINARIN] had a Papp of less than 1 ×10⁻⁶ cm/s.

On to `CO[C@@H]1[C@@H](O[C@@H]2O[C@H](C)[C@@H](O[C@H]3C[C@@](C)(O)[C@@H](O)[C@H](C)O3)[C@H](N(C)C)[C@H]2O)[C@@H](CC=O)C[C@@H](C)[C@@H](O[C@H]2CC[C@H](N(C)C)[C@@H](C)O2)/C=C/C=C/C[C@@H](C)OC(=O)C[C@H]1OC(C)=O` [SPIRAMYCIN II], for which the Papp stood at 7.6 ×10⁻⁶ cm/s.

On to `COc1ccc2cc3[n+](cc2c1OC)CCc1cc2c(cc1-3)OCO2` [BERBERINE HYDROCHLORIDE], for which the Papp is less than 1 ×10⁻⁶ cm/s.

Still in this data set, the particulars now being: PAMPA, PAMPA-BBB Pe, Table S2: compounds exhibiting moderate to high PAMPA-BBB permeability.
Compound `C[C@]12CCC(=O)C=C1CC[C@@H]1[C@@H]2C(=O)C[C@]2(C)C(=O)CC[C@@H]12` [ADRENOSTERONE] showed a Papp of 41 ×10⁻⁶ cm/s.

As to `CC(=O)[C@H]1CC[C@H]2[C@@H]3C[C@H](C)C4=CC(=O)CC[C@]4(C)[C@H]3[C@@H](O)C[C@]12C` [MEDRYSONE], the Papp worked out at 72 ×10⁻⁶ cm/s.

The compound `COc1ccc(C(C)=O)c(O)c1` [PAEONOL] returned a Papp of 146 ×10⁻⁶ cm/s.

As for `CC1(C)C2=CCCC(C)(C)[C@]23CC[C@H]1C3` [ISOLONGIFOLENE], the Papp came to 87 ×10⁻⁶ cm/s.

`CCCCCCCCCCCCCC(=O)O[C@@H]1[C@@H](C)[C@@]2(O)[C@@H](C=C(CO)C[C@]3(O)C(=O)C(C)=C[C@@H]23)[C@@H]2C(C)(C)[C@]12OC(C)=O` [PHORBOL MYRISTATE ACETATE]: the Papp was found to be 47 ×10⁻⁶ cm/s.

Compound `COc1cc(C)c(C(=O)Oc2cc(C)c(C(=O)O)c(O)c2C)c(OC)c1C` [Diffractaic acid] registered a Papp of 15 ×10⁻⁶ cm/s.

In turn, `CCCCCc1cccc(=O)o1` [6-PENTYL-2H-PYRAN-2-ONE] returned a Papp of 52 ×10⁻⁶ cm/s.

`COc1ccc(COC(C)=O)cc1` [P-METHOXYBENZYL ACETATE] yielded a Papp of 172 ×10⁻⁶ cm/s.

In turn, `COC1=C[C@]23CCN(C)[C@H](Cc4ccc(OC)c(O)c42)C3=CC1=O` [SALUTARIDINE] had a Papp of 11 ×10⁻⁶ cm/s.

For the compound `COc1ccc2[nH]c3c(c2c1)CCN=C3C` [6-METHOXYHARMALANE], the Papp is 49 ×10⁻⁶ cm/s.

`COC(=O)/C=C\C(=O)O` [[…]] yielded a Papp of 48 ×10⁻⁶ cm/s.

Regarding `CCCC[C@@H](C)/C=C(C)/C=C(\C)C(=O)NC1=C[C@@](O)(/C=C/C=C/C=C/C(=O)NC2=C(O)CCC2=O)[C@@H]2O[C@@H]2C1=O` [MANUMYCIN A], the Papp was determined as 64 ×10⁻⁶ cm/s.

In turn, `CCCCCCCCC(=O)NCc1ccc(O)c(OC)c1` [NONIVAMIDE] had an apparent permeability coefficient (Papp) of 125 ×10⁻⁶ cm/s.

Consider `COc1ccc(-c2coc3cc(O)ccc3c2=O)cc1` [FORMONONETIN], for which the Papp came to 97 ×10⁻⁶ cm/s.

With `COC(=O)c1c(C)cc(O)cc1O` [Methyl 2,4-dihydroxy-6-methylbenzoate], the Papp turned out to be 63 ×10⁻⁶ cm/s.

As to `C=CCc1ccc(O)c(OC)c1` [EUGENOL], the Papp turned out to be 116 ×10⁻⁶ cm/s.

In the case of `O=Cc1cc2ccccc2o1` [2-FORMYLBENZOFURAN], the Papp worked out at 154 ×10⁻⁶ cm/s.

For `COC1=CC(=O)O[C@@H](/C=C/c2ccc3c(c2)OCO3)C1` [METHYSTICIN], the Papp was 104 ×10⁻⁶ cm/s.

`C[C@]12CC[C@H]3[C@@H](CCC4=CC(=O)CC[C@@]43C)[C@@H]1CC[C@@H]2C(=O)CO` [DESOXYCORTICOSTERONE]: the apparent permeability coefficient (Papp) came to 65 ×10⁻⁶ cm/s.

Regarding `O=C(/C=C/c1ccccc1)NCCO` [IDROCILAMIDE], the Papp came out at 211 ×10⁻⁶ cm/s.

Take `Cc1ccc(C(C)C)cc1O` [CARVACROL]: the Papp is 111 ×10⁻⁶ cm/s.

Regarding `COc1ccc(-c2oc3cc(OC)c(OC)c(OC)c3c(=O)c2OC)cc1OC`, the Papp was 120 ×10⁻⁶ cm/s.

Source of the values: article PMC11876671, “Investigating blood–brain barrier penetration and neurotoxicity of natural products for central nervous system drug development” (Scientific Reports, 2025).
